Measured values from paper PMC11697113, “The Hsc70 system maintains the synaptic SNARE protein SNAP-25 in an assembly-competent state and delays its aggregation [drawing 1]” (The Journal of Biological Chemistry, 2024).

Assays:
SNAP-25 = experiment: Far-UV CD; format: physicochemical; settings: far-UV CD 200–250 nm, 22 °C (Fig. S1)
Description: SNAP-25 has four native cysteines that are palmitoylated upon interaction with the membrane. […] For all of our studies, the SNAP-25 CS mutant was used unless otherwise mentioned.
The far-UV CD spectra (200–250 nm) were recorded on a Jasco J-1500 Circular Dichroism Spectrophotometer at 22 °C. The SNAP-25 WT, SNAP-25, and mixture of SNAP-25 and Hsc70 were taken in a 1 mm path length quartz cuvette. Figures show the average of ten scans where the buffer baselines were subtracted. Data were plotted using software using the Origin (Pro) program (OriginLab Corp).

[1] = test system: SNARE complex with syntaxin and synaptobrevin; experiment: SDS-resistant SNARE complex formation (SDS-PAGE); format: biochemical; settings: without Hsc70, mixed with syntaxin and synaptobrevin, 1 M NaCl, 4 °C
Description: We took aliquots of SNAP-25 at different time points of the aggregation reaction (at 0 h, in lag phase and at 64 h in the log or saturation phase, Fig. 2A) and mixed them with the SNARE motifs of syntaxin and synaptobrevin to allow the formation of the SNARE complex.
Figure 6 Hsc70 facilitates incorporation of SNAP-25 into the SNARE complex in vitro. SDS-PAGE of SNAP-25 taken from the aggregation reactions (Fig. 2) at 0 h and 64 h after the initiation, without (left) and with Hsc70 (right), and mixed with syntaxin and synaptobrevin for the time indicated below each SDS-PAGE. SNAP-25 is expressed and purified from E. coli; a minor amount of the bacterial Hsp70 homolog DnaK (∼70 kDa) may copurify with SNAP-25, explaining the presence of higher molecular weight bands, with its proteolysis potentially occurring during ∼64-h SNAP-25 aggregation reactions. For synaptobrevin, we attribute the higher molecular weight bands to incomplete cleavage of GST-tagged synaptobrevin.
The SNARE motifs were mixed in an equimolar ratio in the following order: synaptobrevin-2 (29–93), syntaxin-1A (191–253), and SNAP-25 taken from the aggregation reaction, in the presence of 1 M NaCl. The assembly reaction was incubated at 4 °C overnight while rotating. The SNARE motifs were concentrated using a 30-kDa molecular weight cutoff Amicon centrifugation filters and run on 4 to 20% gradient SDS-PAGE.

Hsc70 = target: T1, Hsc70 (Homo sapiens, UniProt P11142); experiment: ATPase activity of Hsc70 (malachite green); format: biochemical; settings: Hsc70 2 μM, peptide 200 μM, 1 mM ATP, HMK buffer, 1 mM DTT, 37 °C, 1 h, malachite green 620 nm; SD, three independent experiments
T1 construct: 6X His-tag (TEV-cleavable) (cleaved yes); made in house; host or cells: E. coli Rosetta (DE3)
Excerpt: Hsp70s consist of an nucleotide-binding domain (NBD) and a substrate-binding domain (SBD). Hsc70 works using an allosteric mechanism whereby substrate binding at the SBD stimulates the ATP hydrolysis rate at the nucleotide-binding domain. The basal ATPase rate of Hsp70 is low, usually about 0.05 ± 0.009 mol Pi/mol protein, and increases when it is stimulated by binding of a peptide to the canonical site in the SBD. We measured the ability of SNAP-25 peptides SNNP and SNCP to stimulate the ATPase rate of Hsc70 (Fig. 5A). SNNP and SNCP binding cause a 1.5-fold increase of the Hsc70 ATPase rate over basal (observed rates upon addition of SNNP and SNCP were 0.089 ± 0.008 and 0.080 ± 0.005, respectively). In order to confirm that peptides are indeed binding at the canonical binding site of Hsc70, we used the V438F mutant that blocks the binding site ([37]). […] The addition of CSPαJ stimulates the ATPase activity of Hsc70 ∼4-fold with and without peptides.
Figure 5 SNN and SNC peptides interact with the canonical substrate-binding site of Hsc70.A, ATPase activity of Hsc70 (2 μM) in the absence (gray) and presence of 200 μM SNNP (orange) and SNCP (green) peptides. Error bars represent the SDs from three independent experiments. B, binding of SNAP-25 (black), SNNP (orange), LoopP (blue), and SNCP (green) peptides to Hsc70 followed by competition for FITC-p5 peptide using fluorescence anisotropy. Increasing concentrations of the competitors were added to a complex of Hsc70 (5 μM) and FITC-p5 peptide (50 nM). Error bars represent SDs from three independent experiments. […]
We performed ATPase assays to observe the activity of Hsc70 in the presence of SNAP25 peptides. […] Absorbance readings were taken at 620 nm using a BioTek plate reader. […]
(C) ATPase activity of Hsc70 (at 2 μM) in the absence (grey) and presence of 200 μM SNNP (orange) and L(Loop)-SNCP (green) peptides, and in the absence and presence of CSPa-J and CSPa-J/Apg2. The statistical significance was calculated using one-way ANOVA test with Sidak’s multiple comparison and the Hsc70 ATPase activity […]

T1 sequence (P11142 whole entry): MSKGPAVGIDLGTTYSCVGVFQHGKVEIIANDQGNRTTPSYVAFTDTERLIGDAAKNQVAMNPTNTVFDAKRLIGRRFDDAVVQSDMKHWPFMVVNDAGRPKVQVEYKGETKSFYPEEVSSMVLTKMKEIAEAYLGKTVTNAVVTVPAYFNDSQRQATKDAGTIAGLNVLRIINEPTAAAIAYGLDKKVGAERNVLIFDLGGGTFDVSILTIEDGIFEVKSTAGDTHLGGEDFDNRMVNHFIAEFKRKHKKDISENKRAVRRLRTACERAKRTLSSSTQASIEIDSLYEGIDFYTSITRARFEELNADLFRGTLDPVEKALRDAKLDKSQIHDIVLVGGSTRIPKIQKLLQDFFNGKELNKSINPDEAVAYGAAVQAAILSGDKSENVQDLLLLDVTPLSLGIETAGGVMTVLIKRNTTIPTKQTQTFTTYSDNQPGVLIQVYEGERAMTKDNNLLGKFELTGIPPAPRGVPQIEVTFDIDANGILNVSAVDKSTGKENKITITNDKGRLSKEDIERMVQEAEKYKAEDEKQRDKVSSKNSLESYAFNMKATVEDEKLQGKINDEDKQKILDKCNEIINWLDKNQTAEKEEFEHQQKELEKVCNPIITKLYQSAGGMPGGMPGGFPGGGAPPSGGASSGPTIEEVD

Substance | conformational change upon Hsc70-SNAP-25 interaction (SNAP-25) | SNARE complex formation by SNAP-25 taken at 0 h of aggregation [1] | SNARE complex formation by SNAP-25 taken at 64 h of aggregation [1] | ATPase rate of Hsc70 upon addition of peptide (Hsc70)
synaptosomal-associated 25 kDa protein [SNAP-25] | no significant conformational change | forms SDS-resistant SNARE complexes | unable to form the SNARE complexes | –
RRMLQLVEESK [SNNP, peptide … from the SNN domain of SNAP-25] | – | – | – | 0.089 ± 0.008
EREQMAISGGFIRR [SNCP, peptide … from the LOOP-SNC domain of SNAP-25] | – | – | – | 0.080 ± 0.005
